Data published in publication PMC7366380, “Discovery of a Potent and Selective Covalent Inhibitor and Activity-Based Probe for the Deubiquitylating Enzyme UCHL1, with Antifibrotic Activity” (Journal of the American Chemical Society, 2020).
pIC50: −log10 of the molar value.

Experiments:
USP19 = target: T1, USP19 (Homo sapiens, UniProt O94966); test: Biochemical DUB selectivity profiling assay: USP19; conditions: Ub-Lys-TAMRA 50 nM, buffer A; read-out: Biochemical IC50 range, USP19
T1 sequence (O94966 1-1318): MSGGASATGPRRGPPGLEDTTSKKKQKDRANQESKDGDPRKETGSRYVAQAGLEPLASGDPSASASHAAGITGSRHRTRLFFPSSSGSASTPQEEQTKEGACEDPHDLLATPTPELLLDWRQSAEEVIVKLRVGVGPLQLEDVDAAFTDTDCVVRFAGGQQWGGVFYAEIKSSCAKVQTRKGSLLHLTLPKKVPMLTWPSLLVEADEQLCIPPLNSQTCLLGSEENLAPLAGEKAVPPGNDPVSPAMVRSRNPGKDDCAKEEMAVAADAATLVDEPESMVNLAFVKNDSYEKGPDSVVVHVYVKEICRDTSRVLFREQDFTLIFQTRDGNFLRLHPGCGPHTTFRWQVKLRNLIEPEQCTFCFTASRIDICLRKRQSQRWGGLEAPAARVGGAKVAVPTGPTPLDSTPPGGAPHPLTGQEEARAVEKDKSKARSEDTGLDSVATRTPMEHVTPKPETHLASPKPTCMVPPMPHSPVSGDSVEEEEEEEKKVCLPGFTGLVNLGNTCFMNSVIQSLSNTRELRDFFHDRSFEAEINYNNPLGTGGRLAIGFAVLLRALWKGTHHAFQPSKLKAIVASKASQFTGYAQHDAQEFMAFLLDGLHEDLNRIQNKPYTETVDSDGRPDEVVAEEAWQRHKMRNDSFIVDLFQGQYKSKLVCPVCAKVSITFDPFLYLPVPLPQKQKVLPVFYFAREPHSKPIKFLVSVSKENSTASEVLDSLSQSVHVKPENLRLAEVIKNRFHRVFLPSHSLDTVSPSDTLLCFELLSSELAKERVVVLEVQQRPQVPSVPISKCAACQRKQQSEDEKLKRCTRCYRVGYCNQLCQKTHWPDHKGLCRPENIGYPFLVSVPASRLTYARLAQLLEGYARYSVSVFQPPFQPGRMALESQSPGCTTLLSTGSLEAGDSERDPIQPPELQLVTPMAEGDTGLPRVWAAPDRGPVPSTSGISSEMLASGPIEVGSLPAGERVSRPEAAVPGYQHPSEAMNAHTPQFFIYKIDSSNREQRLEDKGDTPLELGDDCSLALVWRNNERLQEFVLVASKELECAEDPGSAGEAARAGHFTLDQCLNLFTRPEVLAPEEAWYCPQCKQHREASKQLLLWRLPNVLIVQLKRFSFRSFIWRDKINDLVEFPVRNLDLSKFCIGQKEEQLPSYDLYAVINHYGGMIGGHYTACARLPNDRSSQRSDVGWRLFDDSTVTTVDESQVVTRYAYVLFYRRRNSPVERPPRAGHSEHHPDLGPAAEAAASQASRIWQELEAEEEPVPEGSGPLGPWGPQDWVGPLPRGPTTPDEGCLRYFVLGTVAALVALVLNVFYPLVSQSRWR
Procedure: (§1) DUB Assay Substrate Substrate
(§2) Buffer Concentration (nM) […]
(§3) Sepharose® 4B resin (GE Healthcare).
(§4) 10 kDa molecular weight cut-off (MWCO)).
(§5) Fractions containing protein
(§6) Protein concentration was […]
(§7) reaction volume of 21 μL. […]
(§8) compound (final concentration 5 nM).
(§9) IC50 values were determined
(§10) Biochemical DUB selectivity profiling assays […]
(§11) in 40 µL total reaction volume.

UCHL3 = target: T2, UCHL3 (Homo sapiens, UniProt P15374); test: Biochemical DUB selectivity profiling assay: UCHL3; conditions: Ub-Lys-TAMRA 50 nM, buffer A; read-out: Biochemical IC50 range, UCHL3
T2 sequence (P15374 1-230): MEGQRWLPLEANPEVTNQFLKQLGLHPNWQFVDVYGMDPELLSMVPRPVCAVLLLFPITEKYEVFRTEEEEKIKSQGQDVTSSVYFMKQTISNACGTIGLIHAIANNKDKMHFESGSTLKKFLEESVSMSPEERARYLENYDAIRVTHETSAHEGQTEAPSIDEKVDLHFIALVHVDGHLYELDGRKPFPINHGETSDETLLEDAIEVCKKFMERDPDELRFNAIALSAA
Procedure: as §1, §2, §3, §4, §5, §6, §7, §8, §9, §10, §11

Cezanne1 = target: T3, Cezanne1 (Homo sapiens, UniProt Q6GQQ9); test: Biochemical DUB selectivity profiling assay: Cezanne1; conditions: Ub-Lys-TAMRA 50 nM, buffer B; read-out: Biochemical IC50 range, Cezanne1
T3 sequence (Q6GQQ9 1-843): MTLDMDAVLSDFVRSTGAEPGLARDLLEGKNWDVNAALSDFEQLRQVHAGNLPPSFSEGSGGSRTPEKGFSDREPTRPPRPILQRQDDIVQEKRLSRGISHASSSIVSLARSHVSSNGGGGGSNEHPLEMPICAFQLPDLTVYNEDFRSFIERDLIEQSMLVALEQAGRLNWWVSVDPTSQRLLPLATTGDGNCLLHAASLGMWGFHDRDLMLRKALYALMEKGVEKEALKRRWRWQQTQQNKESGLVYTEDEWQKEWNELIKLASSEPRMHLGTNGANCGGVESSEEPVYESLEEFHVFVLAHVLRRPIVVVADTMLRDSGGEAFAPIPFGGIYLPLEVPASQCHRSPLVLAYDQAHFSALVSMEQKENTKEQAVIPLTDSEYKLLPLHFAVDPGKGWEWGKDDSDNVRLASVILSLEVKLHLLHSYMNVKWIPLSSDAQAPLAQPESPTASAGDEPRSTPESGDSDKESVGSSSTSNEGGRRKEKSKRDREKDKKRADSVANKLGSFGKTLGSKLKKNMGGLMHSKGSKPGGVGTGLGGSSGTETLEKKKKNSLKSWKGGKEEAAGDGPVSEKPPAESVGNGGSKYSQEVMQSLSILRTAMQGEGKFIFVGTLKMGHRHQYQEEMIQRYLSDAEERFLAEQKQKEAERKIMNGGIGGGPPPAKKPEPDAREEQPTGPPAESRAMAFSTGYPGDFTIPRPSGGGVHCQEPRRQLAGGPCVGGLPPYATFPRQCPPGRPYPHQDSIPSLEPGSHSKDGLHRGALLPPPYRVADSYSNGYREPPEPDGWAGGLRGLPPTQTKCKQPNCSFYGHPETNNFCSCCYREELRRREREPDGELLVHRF
Procedure: as §1, §2, §3, §4, §5, §6, §7, §8, §9, §10, §11

UCHL5 = target: T4, UCHL5 (Homo sapiens, UniProt Q9Y5K5); test: biochemical
T4 sequence (Q9Y5K5 1-329): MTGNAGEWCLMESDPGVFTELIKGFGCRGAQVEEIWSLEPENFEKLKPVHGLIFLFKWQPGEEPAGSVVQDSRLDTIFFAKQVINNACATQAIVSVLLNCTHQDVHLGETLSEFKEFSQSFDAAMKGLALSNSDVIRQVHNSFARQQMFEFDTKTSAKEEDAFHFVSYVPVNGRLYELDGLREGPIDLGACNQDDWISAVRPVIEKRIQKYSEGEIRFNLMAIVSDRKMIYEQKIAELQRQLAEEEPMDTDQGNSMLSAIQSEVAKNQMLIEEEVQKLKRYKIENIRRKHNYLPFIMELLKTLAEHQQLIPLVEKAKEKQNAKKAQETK

[1] = FMT assay, cell number (DAPI nuclei count); conditions: human

Compound	pIC50 (USP19)	pIC50 (UCHL3)	pIC50 (Cezanne1)	pIC50 (UCHL5)	EC50 at 3 days [1] [µM]
N#CN1CCC[C@H]1C(=O)N1CCc2c(-c3c[nH]c4ncccc34)cccc21 [Compound 1]	< 5.00	5.00 to 6.00	< 5.00	< 5.00	~11
C#Cc1cnc2[nH]cc(-c3cccc4c3CCN4C(=O)[C@@H]3CCCN3C#N)c2c1 [Compound 2]	< 5.00	5.00 to 6.00	< 5.00		~11
N#CN1CCC[C@@H]1C(=O)N1CCc2c(-c3c[nH]c4ncccc34)cccc21 [Compound 3]	< 5.00	< 5.00	< 5.00	< 5.00	~23
CC(=O)O/N=C1\C(=O)N(Cc2cc(Cl)ccc2Cl)c2ccc(Cl)cc21 [LDN-57444, reference compound]	< 5.00	< 5.00	< 5.00	< 5.00	
